Results taken from ChEMBL document CHEMBL1150538, “Anti HIV-1 activity of a hydrophilic cyclosporin derivative with improved binding affinity to cyclophilin A” (Bioorg Med Chem Lett, 1996).
≈ marks a conversion by molar mass, not a printed value.

Legend:
AIK-T4 = assay: In vitro inhibition of the cytopathic effect induced by HIV-1(IIIB) using the human T-cell leukemia virus transformed T4 cell line.; format: functional, cell-based
Jurkat = assay: In vitro immunosuppressive activity relative to cyclosporin A using interleukin-2 reporter gene assay was determined in a Jurkat cell line; format: functional, Homo sapiens
Mus musculus = organism: Mus musculus; assay: In vitro immunosuppressive activity relative to cyclosporin A was determined by using mouse mixed lymphocyte reaction; format: functional

Compound	IC50 (AIK-T4)	Relative IC50 (Jurkat)	Relative IC50 (Mus musculus)
C/C=C/C[C@@H](C)[C@@H](O)[C@H]1C(=O)N[C@@H](CC)C(=O)N(C)[C@H](CO)C(=O)N(C)[C@@H](CC(C)(C)O)C(=O)N[C@@H](C(C)C)C(=O)N(C)[C@@H](CC(C)C)C(=O)N[C@@H](C)C(=O)N[C@H](C)C(=O)N(C)[C@@H](CC(C)C)C(=O)N(C)[C@@H](CC(C)C)C(=O)N(C)[C@@H](C(C)C)C(=O)N1C [listing 1 of 2 here]	0.12 µg/mL (≈ 0.0961 µM)	–	–
C/C=C/C[C@@H](C)[C@@H](O)[C@H]1C(=O)N[C@@H](CC)C(=O)N(C)[C@H](CO)C(=O)N(C)[C@@H](CC(C)(C)O)C(=O)N[C@@H](C(C)C)C(=O)N(C)[C@@H](CC(C)C)C(=O)N[C@@H](C)C(=O)N[C@H](C)C(=O)N(C)[C@@H](CC(C)C)C(=O)N(C)[C@@H](CC(C)C)C(=O)N(C)[C@@H](C(C)C)C(=O)N1C [listing 2 of 2 here]	–	>770	>3333
